Measured values taken from US20030220309A1, “17-methylenandrostan-3alpha-ol analogs as CRH inhibitors” (Pherin Pharmaceuticals, Inc., priority 2001, published 2003).

Experiments:
[1] = tested on: normal adult male and female human volunteers; experiment: Sleep evaluation after administration to the vomeronasal organ of normal human volunteers; assay type: in vivo; set-up: key: increase (↑); decrease (↓); no change (=); settings: 400 pg administered to the VNO before bedtime, normal subjects, males and females combined, change with respect to placebo
Method: (§1) 17-Methylenandrost-4-en-3α-ol, 400 pg, or placebo were administered to the vomeronasal organs of normal adult male and female human volunteers using a delivery device which delivered the compound to the opening of the vomeronasal organ in measured quantity (two 2 second “puffs” of a 10^−8 M solution of the active ingredient in propylene glycol, or propylene glycol alone). The study evaluations included objective and subjective evaluations of sleep, a power spectral analysis of the subjects' electroencephalograms, and a pencil-and-paper self-report inventory (ABS-70) of the subjects' effective state.
The table below provides a comparison of the results from the study with 17-methylenandrost-4-en-3α-ol with literature reports on the effects of the effects of the marketed antidepressant paroxetine (Paxil®); where changes in sleep variables are indicated as an increase (↑), decrease (↓), or no change (=) with respect to placebo.
Comparative effects of 17-methylenandrost-4-en-3α-ol, 400 pg administered to the VNO, and paroxetine, 30 mg orally, given before bedtime in normal subjects: […]

[2] = tested on: norepinephrine and serotonin; experiment: Neurotransmitter concentrations in blood and metabolites in urine; assay type: in vivo; settings: relative to placebo, human volunteers
Method: as §1
(§2) 17-Methylenandrost-4-en-3α-ol also reduces plasma concentrations of ACTH and cortisol, and also reduces cortisol concentration in urine. It also increases, relative to placebo, concentrations of the neurotransmitters norepinephrine and serotonin in blood and their metabolites in urine.

CRH = experiment: ACTH and cortisol concentrations in plasma and urine (indirect measure of CRH inhibition); assay type: in vivo; settings: 400 pg to the vomeronasal organ, human volunteers
Method: The compounds of this invention are, when administered to the VNO, CRH inhibitors. Their activity as CRH inhibitors in vivo can be measured directly by measurement of the inhibition of CRH or indirectly by the measurement of other hormones, such as ACTH, and steroids, such as cortisol, associated with CRH, as discussed in the Examples.
as §1, §2

[3] = tested on: normal adult male and female human volunteers; experiment: Overall outcome of the vomeronasal study (sleep, EEG, self-report); assay type: in vivo; settings: administration to the vomeronasal organ
Method: as §1

[4] = tested on: normal adult male and female human volunteers; experiment: Power spectral analysis of electroencephalograms after vomeronasal administration; assay type: in vivo; settings: 400 pg to the vomeronasal organ
Method: as §1
Based on this study, 17-methylenandrost-4-en-3α-ol shares antidepressant and stimulant properties with paroxetine and other selective serotonin reuptake inhibitor antidepressants.

normal subjects = tested on: normal subjects; set-up: key: increase (↑); decrease (↓); no change (=); settings: 30 mg orally before bedtime, change with respect to placebo, from Saletu et al. 1991; cited from earlier work

C=C1CC[C@H]2[C@@H]3CCC4=C[C@H](O)CC[C@]4(C)[C@H]3CC[C@]12C [17-Methylenandrost-4-en-3α-ol]
REM sleep latency [1]: ↑ | Sleep efficiency [1]: ↓ | Sleep latency [1]: ↑ | Stage 1 sleep time [1]: ↑ | Stage 2 sleep time [1]: ↑ | Stages 3 + 4 sleep time [1]: = | Total REM sleep time [1]: ↓ | Total sleep time [1]: ↓ | concentration of norepinephrine in blood ([2]; blood): increases | concentration of serotonin in blood ([2]; blood): increases | concentrations of norepinephrine and serotonin metabolites in urine ([2]; urine): increases | plasma concentration of ACTH (CRH; plasma): reduces | plasma concentration of cortisol (CRH; plasma): reduces | cortisol concentration in urine (CRH; urine): reduces | overall study result (sleep, EEG, hormones, neurotransmitters) [3]: antidepressant properties | EEG β-wave activity [4]: increased | EEG θ-wave activity [4]: increased | δ-frequency activity in stages S3 and S4 non-REM sleep [4]: increase

Fc1ccc([C@@H]2CCNC[C@H]2COc2ccc3c(c2)OCO3)cc1 [Paroxetine, paroxetine]
REM sleep latency (normal subjects): ↑ | Sleep efficiency (normal subjects): ↓ | Sleep latency (normal subjects): ↑ | Stage 1 sleep time (normal subjects): ↑ | Stage 2 sleep time (normal subjects): = | Stages 3 + 4 sleep time (normal subjects): = | Total REM sleep time (normal subjects): ↓ | Total sleep time (normal subjects): ↓
